Measurements published in patent EP2050747A1, “Dimers of harmol or of its derivatives and uses thereof” (BioAlliance Pharma, priority 2007, dated 2009).

What was measured:
[1] = tested on: malignant NIH 3T3 EF cells; test: Wound healing assay (cell motility); assay type: cell-based; conditions: NIH 3T3 EF, non cytotoxic concentration (25-100 nM), 10 h after wound formation, Figure 5
Experimental: (§1) Harmol dimers have been tested in a cell motility assay: the behaviour of tumoral cells treated by these dimers was compared with non-treated tumoral cells in a wound healing assay. Wound healing assay was performed to evaluate the effect of tested molecules on motility of malignant NIH 3T3 EF cells and melanoma cell line B16F10. About 100 000-200 000 cells were seeded in a 6-well culture plate and the tested molecule was added 24 hours later. Cells were grown for 3 days to confluence about 90-95% and small scratch-wounds (1 mm width) were made with a pipette tip. Cell debris were removed, then the cultures were incubated in complete medium for 10 h in the presence of the same concentration of the tested molecule. Then, the cells were fixed for 10 min in PBS containing 3.7% formaldehyde at 4°C.

NIH 3T3 EF [2] = test: MTT assay (cellular viability); assay type: cell-based; conditions: Mus musculus, NIH3T3, 72 h, 3 days
Experimental: (§2) Growth studies were performed using the [3-(4,5 dimethylthiazol-2-yl)-2,5-diphenyl-2H-tetrazolium bromide] (Sigma) colorimetric assay.
(§3) About 1500 cells were seeded in a 96-well culture plate 24 hours before adding increasing concentrations of tested molecule. The plate was incubated at 37°C for 3 days. 10 µl MTT stock solution (5 mg/ml in phosphate buffer saline) was added to 90 µl of complete medium in each well, the incubation was continued for 3 h at 37°C. 100 µl of lysis buffer (10 % sodium dodecyl sulfate, 1% HCl 1N; pH 4.7) was added to each well, and the plate was incubated overnight. The absorbance was determined using an Integrated EIA Management System (Labsystem) at a wavelength of 570 nm. The proliferation rates were calculated from the OD readings using the untreated cells as 100%.

NIH 3T3 EF [3] = test: Cloning assay, colony formation in semi solid medium (methylcellulose); assay type: cell-based; conditions: for inhibitory activity on NIH 3T3 EF colony formation in methylcellulose semi-solid medium: Figure 2; for IC50: Mus musculus, NIH3T3, 504 h, NIH 3T3 EF, 3 weeks, read-out: Inhibition of colony formation (methylcellulose) IC50
Experimental: (§4) Cells were embedded in complete culture medium supplemented with 0,8% methylcellulose (Methocel MC4000, Sigma), seeded in triplicate into 35-mm dishes (Greiner Bio-one Ref 627102, Dominique Dutscher) and incubated at 37 °C in a humidified 5% CO2 atmosphere.
(§5) The number of cells seeded was 1000 cells per dish. After one week (B16F10 cell line) to 3 weeks (NIH 3T3 EF cell line), macroscopic clones were counted.

F-actin = test: Actin dynamics, fluorescence anisotropy assay in tumor cell cytosolic fraction; assay type: biochemical; parameters: Kobs: unit not given beside the values; conditions: for Kobs: rate constant of F-actin elongation; for F actin steady state value (Δ mA max), effect in words / F actin elongation rate constant (Kobs), effect in words: added to assay medium, versus untreated; for F actin steady state value (Δ mA max), effect in words: NIH 3T3 EF cytosolic fraction or lysate, harmol at 10 µM; for actin polymerisation kinetics compared with normal NIH 3T3 cytosolic fraction: tumoral NIH 3T3 EF cytosolic fraction
Experimental: Actin dynamics have been quantified in tumor cell cytosolic fraction using the fluorescence anisotropy assay which gains access to rate constant of F-actin elongation (kobs) and steady state concentration of F-actin (Δ mA max).
All reactions were carried out at 22°C and fluorescence anisotropy signal was recovered at 520 nm with excitation at 490 nm in a Beacon 2000 (Panvera). Alexa 488 actin (Molecular Probes) was centrifuged at 35 000 rpm for 2 h at 4°C to sediment residual actin polymers in a Beckman L5-50B ultracentrifuge. […] 80% of the supernatant was withdrawn; the concentration was defined through fluorescence measurements (excitation at 490 nm and signal recovering at 520 nm). The ultracentrifuged actin concentration was calculated using the non ultracentrifuged Alexa 488 actin as a standard. The supernatant was aliquoted, frozen in liquid nitrogen and stored at -80°C.
Before experiment, an aliquot of ultracentrifuged Alexa 488 actin was diluted to a concentration of 1 mg/ml in G buffer (5 mM Tris pH 8.1, 2 mM CaCl2, 0.2 mM DTT, 0.2 mM ATP). 3 µl of diluted Alexa 488 actin was mixed in 168 µl of G buffer and actin monomers anisotropy was measured before the addition of 4 µl of polymerisation buffer (2.5 M KCI, 50 mM MgCl2, 25 mM ATP), 5 µl of G buffer in the presence or in the absence of the chemical molecule and 20 µl cellular extract of normal NIH 3T3 cells or malignant NIH 3T3 EF cells at 2 mg/ml. The final concentration of Alexa 488 actin was 4 nM. The ratio of unlabelled to labelled actin was about 140/4 nM. Measurements were made each 10 sec for 200 sec. Actin monomers anisotropy value was subtracted, yielding the anisotropy enhancement (Δ mA). The data were fitted with the equation Y= Ymax . [1- exp(- K.X)]. The curves start at zero and ascend to Ymax that corresponds to the steady state anisotropy value (Δ mA eq), with a rate constant K. Y is anisotropy values of which monomers anisotropy is substracted and X is the time (Assessment of cellular actin dynamics by measurement of fluorescence anisotropy. Anal Biochem. 2007 Aug 1;367(1):95-103. Epub 2007 Apr 5. Spitz et al.).

[4] = tested on: melanoma cell line B16F10; test: Wound healing assay (cell motility); assay type: cell-based, Murine; conditions: B16F10, non cytotoxic concentration (25-100 nM), 24 h after wound formation, Figure 6
Experimental: as §1, with “Cell debris were removed, then the cultures were incubated in complete medium for 10 h in the presence of the same concentration of the tested molecule.” left out

B16F10 [5] = test: MTT assay (cellular viability); assay type: cell-based, Murine; conditions: for IC50: Mus musculus, B16-F10, 72 h, B16F10, 3 days
Experimental: as §2, §3

NIH 3T3 EF cells = test: Rescue of F-actin network, FITC-phalloidin fluorescence microscopy; assay type: cell-based; conditions: non cytotoxic concentration (100 nM), three days, Figure 4
Experimental: Malignant NIH 3T3 EF cells were seeded onto glass cover slips at a density of 2000 cells per cm^2. The next day, tested molecules were applied to NIH 3T3 EF cells at various non cytotoxic concentrations. Three days later, cells were fixed for 10 min in PBS containing 3.7 % formaldehyde at 4°C before examination with a fluorescence microscope. The formaldehyde solution was neutralized with 50 mM NH4Cl. Permeabilisation was carried out for 4 min with 0.4% Triton X-100 in PBS. Cells were incubated for 1 h at room temperature with blocking buffer (3% bovine serum albumin in PBS) and then for 1 h with FITC-phalloidin (Sigma) which stabilizes structures by inhibiting phosphate release from ADP-Pi-actin filaments and allows visualization of actin filaments by fluorescence microscopy. The cover slips were mounted on microscope slides using a solution of glycerol 50%, DABCO 2.5% in PBS as embedding medium.

B16F10 [6] = test: Cloning assay, colony formation in semi solid medium (methylcellulose); assay type: cell-based, Murine; conditions: for IC50: Mus musculus, B16-F10, 168 h, B16F10, one week, read-out: Inhibition of colony formation (methylcellulose) IC50
Experimental: as §4, §5

B16F10 tumor = test: In vivo tumorigenicity assay, subcutaneous B16F10 tumor growth; parameters: species or system C57BU6 mice
Experimental: Female 6-8 week-old C57BU6 mice were provided by Harlan (Gannat, France).
Animals were housed in air-conditioned atmosphere, given food and water in standard conditions. One million B16F10 cells in 0.1 ml PBS were injected subcutaneously into the right flank of mice. Seven days after cells inoculation, it was possible to measure tumor volume (day 0). Thereafter, before drug administration, female C57BU6 mice were randomized to form 2 groups. […]
B16F10 tumor development was monitored for 2 weeks. The tumor size was estimated every fourth day by measuring the diameters of the tumors in two perpendicular dimensions using callipers. The volume of tumor (V) was calculated using the formula, V = 2W(U2)2 , where L and W were respectively the length and the width of tumor.
In vivo tumorigenicity assay was studied with harmine. […] In parallel, control mice were treated by one daily oral route administration of the vehicle.

[7] = 10 µM, NIH 3T3 EF extract, steady state concentration of F-actin (anisotropy enhancement)

| SMILES | IC50 (B16F10 [5]) [nM] | IC50 (B16F10 [6]) [nM] | inhibition of malignant cell motility [1] | IC50 (NIH 3T3 EF [2]) [nM] | inhibitory activity on NIH 3T3 EF colony formation in methylcellulose semi-solid medium (NIH 3T3 EF [3]) | IC50 (NIH 3T3 EF [3]) [nM] | Kobs (F-actin; 10 µM, NIH 3T3 EF extract) | Δ mA max (F-actin; [7]) | F actin steady state value (Δ mA max), effect in words (F-actin) | F actin elongation rate constant (Kobs), effect in words (F-actin; NIH 3T3 EF cytosolic fraction) | inhibition of malignant cell motility [4] | reorganisation of the actin network in tumor cells (NIH 3T3 EF cells) | inhibitory activity on B16F10 colony formation in methylcellulose semi-solid medium (B16F10 [6]; Figure 3) | actin polymerisation kinetics compared with normal NIH 3T3 cytosolic fraction (F-actin; 10 µM) | also measured |
| --- | --- | --- | --- | --- | --- | --- | --- | --- | --- | --- | --- | --- | --- | --- | --- |
| Cc1nccc2c1[nH]c1cc(O)ccc12 [harmol] |  |  |  |  |  |  |  |  | No increase |  |  |  |  |  | Δ mA max (F-actin; 10 µM, tumoral NIH3T3 EF cellular lysate): 42 mA; cytotoxicity as measured by MTT test (B16F10 [5]; at 3 µM): non-cytotoxic concentration; inhibitory activity on B16F10 colony formation in methylcellulose semi-solid medium (B16F10 [6]; at 3 µM): did not display an inhibitory activity |
| COc1ccc2c3ccnc(C)c3n(CCCCCn3c4cc(OC)ccc4c4ccnc(C)c43)c2c1 [BA016FZ518, 9,9'-pentane-1,5-diylbis(7-methoxy-1-methyl-9H-β-carboline)] | 3000 | 40 | inhibited | 750 | marked inhibitory activity | 250 | 0,104 | 59 | increased | increased | inhibited | able to reorganise the actin network | marked inhibitory activity | similar |  |

Now from value to compound, other results behind:

| IC50 (B16F10 [5]) [nM] | IC50 (B16F10 [6]) [nM] | SMILES | inhibition of malignant cell motility [1] | IC50 (NIH 3T3 EF [2]) [nM] | inhibitory activity on NIH 3T3 EF colony formation in methylcellulose semi-solid medium (NIH 3T3 EF [3]) | IC50 (NIH 3T3 EF [3]) [nM] | Kobs (F-actin; 10 µM, NIH 3T3 EF extract) | Δ mA max (F-actin; [7]) | F actin steady state value (Δ mA max), effect in words (F-actin) | F actin elongation rate constant (Kobs), effect in words (F-actin; NIH 3T3 EF cytosolic fraction) | inhibition of malignant cell motility [4] | reorganisation of the actin network in tumor cells (NIH 3T3 EF cells) | inhibitory activity on B16F10 colony formation in methylcellulose semi-solid medium (B16F10 [6]; Figure 3) | actin polymerisation kinetics compared with normal NIH 3T3 cytosolic fraction (F-actin; 10 µM) | also measured |
| --- | --- | --- | --- | --- | --- | --- | --- | --- | --- | --- | --- | --- | --- | --- | --- |
| 1500 | 175 | Cc1nccc2c1[nH]c1cc(OCCCOc3ccc4c(c3)[nH]c3c(C)nccc34)ccc12 [BA016FZ527, 7,7'-[Propane-1,3-diylbis(oxy)]bis(1-methyl-9H-β-carboline)] | inhibited | 1000 | marked inhibitory activity | 500 | 0,132 | 83 | increased | increased | inhibited | able to reorganise the actin network | marked inhibitory activity |  | F actin steady state value compared with NIH 3T3 cytosolic fraction (F-actin; 10 µM, NIH 3T3 EF cytosolic fraction): higher; F actin elongation rate constant compared with NIH 3T3 cytosolic fraction (F-actin; NIH 3T3 EF cytosolic fraction, BA016FZ527 at 10 µM, harmine concentration not given): higher |
| 400 | 30 | Cc1nccc2c1[nH]c1cc(OCCCCCOc3ccc4c(c3)[nH]c3c(C)nccc34)ccc12 [BA016DD1172, 7,7'-[Pentane-1,5-diylbis(oxy)]bis(1-methyl-9H-β-carboline)] | inhibited | 300 | marked inhibitory activity | 50 | 0,179 | 62 | increased | increased | inhibited | able to reorganise the actin network | marked inhibitory activity | similar | antitumor activity against B16 melanoma (B16F10 tumor; daily per os 100 mg/kg for five days, Figure 7): marked antitumor activity; tumoral growth inhibition (B16F10 tumor; day 7, daily per os 100 mg/kg for five days, versus control group, p = 0,0020): 48,5% |
| 750 | 125 | Cc1nccc2c1[nH]c1cc(OCC3OC(C)(C)OC3COc3ccc4c(c3)[nH]c3c(C)nccc34)ccc12 (stereo not drawn) [BA016DD1183, 7,7'-[(2,2-dimethyl-1,3-dioxolane-4,5-diyl)bis(methyleneoxy)]bis(1-methyl-9H-β-carboline)] | inhibited | 1000 | marked inhibitory activity | 300 | 0,158 | 61 | increased | increased | inhibited | able to reorganise the actin network | marked inhibitory activity | similar |  |
